In EP4227307A1 (Genzyme Corporation, priority 2022, dated 2023):
Structures can show the parent of a compound that is named as a salt.

Molecular target: T1, human recombinant 6His-Nterm SHP2 full-length (Thr2-Arg593) (Homo sapiens, UniProt Q06124)
T1 construct: 6His-Nterm SHP2 full-length (Thr2-Arg593, R&D system); 6His (N); purchased R&D system
T1 sequence (Q06124 2-593): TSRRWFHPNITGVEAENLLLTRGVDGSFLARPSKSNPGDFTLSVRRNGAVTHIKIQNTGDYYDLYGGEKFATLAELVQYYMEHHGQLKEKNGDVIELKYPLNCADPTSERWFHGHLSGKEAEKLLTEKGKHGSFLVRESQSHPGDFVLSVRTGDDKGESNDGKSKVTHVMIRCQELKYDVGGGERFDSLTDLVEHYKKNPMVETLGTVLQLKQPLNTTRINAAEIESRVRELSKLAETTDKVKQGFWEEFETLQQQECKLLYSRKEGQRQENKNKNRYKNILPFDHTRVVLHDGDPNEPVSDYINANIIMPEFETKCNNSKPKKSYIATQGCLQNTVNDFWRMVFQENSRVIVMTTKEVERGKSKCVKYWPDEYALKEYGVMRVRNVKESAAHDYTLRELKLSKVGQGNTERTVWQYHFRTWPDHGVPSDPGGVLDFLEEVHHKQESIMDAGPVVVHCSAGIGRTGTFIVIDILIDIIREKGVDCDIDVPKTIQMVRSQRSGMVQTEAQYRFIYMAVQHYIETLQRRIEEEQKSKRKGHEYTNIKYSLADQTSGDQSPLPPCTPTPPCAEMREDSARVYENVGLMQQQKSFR
Test: SHP2 Phosphatase Assay (DiFMUP fluorescence)
Format: biochemical
Details: SHP2 0.2 nM pre-incubated with 100 nM bi-phosphorylated activating peptide; compound 1000-0.05 nM, 30 min pre-incubation; DiFMUP 20 µM, 45 min, room temperature; 10-concentration dose-response
Method in brief: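 SHP2 (0.2 nM) preactivated ≥10 min with 100 nM bis-phosphorylated peptide, then 30 min with compound (10 concentrations, 1000–0.05 nM) at room temperature, pH 7.2 HEPES buffer with DTT. DiFMUP (20 µM, added solution) reacted 45 min, pervanadate-stopped; fluorescence 350/450 nm. IC50 by 4-parameter logistic fit.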

Compound | IC50 [nM]
Cc1nc(N2CCC3(CC2)Cc2nccnc2[C@H]3N)c2ccnn2c1-c1ccccc1F [Compound 63, (5S)-1'-[7-(2-fluorophenyl)-6-methyl-pyrazolo[1,5-a]pyrazin-4-yl]spiro[5,7-dihydrocyclopenta[b]pyrazine-6,4'-piperidine]-5-amine] | 112
Cc1nc(-c2c(C)nc(N3CCC4(CC3)Cc3ncccc3[C@H]4N)c3ccnn23)cs1 [Compound 158, (5S)-1'-[6-methyl-7-(2-methylthiazol-4-yl)pyrazolo[1,5-a]pyrazin-4-yl]spiro[5,7-dihydrocyclopenta[b]pyridine-6,4'-piperidine] -5-amine hydrochloride] | 47
Cc1nc(N2CCC3(CC2)Cc2ncccc2[C@H]3N)c2c(C(F)F)cnn2c1-c1ccccc1 [Compound 146, (5S)-1'-[3-(difluoromethyl)-6-methyl-7-phenyl-pyrazolo [1,5-a]pyrazin-4-yl]spiro[5,7-dihydrocyclopenta[b]pyridine-6,4'-piperidine]-5-amine] | > 1000
Cc1cc2c(cn1)CC1(CCN(c3nc(C)c(-c4cccc(C#N)c4F)n4nccc34)CC1)[C@@H]2N [Compound 117, 3-[4-[(5S)-5-amino-3-methyl-spiro[5,7-dihydrocyclopenta[c]pyridine-6,4'-piperidine]-1'-yl]-6-methyl-pyrazolo[1,5-a]pyrazin-7-yl]-2-fluoro-benzonitrile hydrochloride] | 10
Cc1nc(N2CCC3(CC2)Cc2nc(O)ccc2[C@H]3N)c2ccnn2c1-c1cccc(F)c1F [Compound 222, (5S)-5-amino-1'-[7-(2,3-difluorophenyl)-6-methyl-pyrazolo[1,5-a]pyrazin-4-yl]spiro[5,7-dihydrocyclopenta[b]pyridine-6,4'-piperidine]-2-ol hydrochloride] | 1
Cc1ccccc1-c1c(C)nc(N2CCC3(CC2)Cc2ncccc2[C@H]3N)c2ccnn12 [Compound 52, (5S)-1'-[6-methyl-7-(o-tolyl)pyrazolo[1,5-a]pyrazin-4-yl]spiro[5,7-dihydrocyclopenta[b]pyridine-6,4'-piperidine]-5-amine] | 24
Cc1nc(N2CCC3(CC2)Cc2ncccc2[C@H]3N)c2ccnn2c1-c1ccnc(N2CCOCC2)c1F [Compound 198, (5S)-1'-[7-(3-fluoro-2-morpholino-4-pyridyl)-6-methyl-pyrazolo[1,5-a]pyrazin-4-yl]spiro[5,7-dihydrocyclopenta[b]pyridine-6,4'-piperidine]-5-amine] | 437
Cc1nccc(-c2c(C)nc(N3CCC4(CC3)Cc3ccccc3[C@H]4N)c3ccnn23)c1Cl [Compound 25, (S)-1'-(7-(3-chloro-2-methylpyridin-4-yl)-6-methylpyrazolo[1,5-a]pyrazin-4-yl)-1,3-dihydrospiro[indene-2,4'-piperidin]-1-amine hydrochloride] | 6
CC(=O)c1ccc(F)c(-c2c(C)nc(N3CCC4(CC3)Cc3ncccc3[C@H]4N)c3ccnn23)c1 [Compound 204, 1-[4-fluoro-3-[6-methyl-4-[(5S)-5-aminospiro [5,7-dihydrocyclopenta[b]pyridine-6,4'-piperidine]-1'-yl]pyrazolo[1,5-a]pyrazin-7-yl]phenyl]ethanone] | 55
Cc1nc(N2CCC3(CC2)Cc2cc(F)ccc2[C@H]3N)c2ccnn2c1-c1cnn(C)c1C [Compound 101, (1S)-1'-[7-(1,5-dimethylpyrazol-4-yl)-6-methyl-pyrazolo[1,5-a]pyrazin-4-yl]-5-fluoro-spiro[indane-2,4'-piperidine]-1-amine hydrochloride] | 15

Second part, the compound after the results:

IC50 [nM] | Compound
4 | Cc1nc(N2CCC3(CC2)Cc2ncccc2[C@H]3N)c2ccnn2c1-c1ccc2nccnc2c1Cl [Compound 77, (5S)-1'-[7-(5-chloroquinoxalin-6-yl)-6-methyl-pyrazolo[1,5-a]pyrazin-4-yl]spiro[5,7-dihydrocyclopenta[b]pyridine-6,4'-piperidine]-5-amine]
10 | Cc1nc(N2CCC3(CC2)Cc2ncccc2[C@H]3N)c2ccnn2c1-c1cc2ccccc2n1C [Compound 50, (5S)-1'-[6-methyl-7-(1-methylindol-2-yl)pyrazolo[1,5-a]pyrazin-4-yl]spiro[5,7-dihydrocyclopenta[b]pyridine-6,4'-piperidine]-5-amine]
4 | Cc1nc(N2CCC3(CC2)Cc2ncccc2[C@H]3N)c2ccnn2c1-c1ccc2c(c1)OCC2 [Compound 162, (5S)-1'-[7-(2,3-dihydrobenzofuran-6-yl)-6-methyl-pyrazolo[1,5-a]pyrazin-4-yl]spiro[5,7-dihydrocyclopenta[b]pyridine-6,4'-piperidine]-5-amine]
19 | Cc1nc(N2CCC3(CC2)Cc2c(F)cccc2[C@H]3N)c2ccnn2c1-c1cnn(C)c1C [Compound 95, (1S)-1'-[7-(1,5-dimethylpyrazol-4-yl)-6-methyl-pyrazolo[1,5-a]pyrazin-4-yl]-4-fluoro-spiro[indane-2,4'-piperidine]-1-amine formate]
11 | Cc1nc(N2CCC3(CC2)Cc2ncccc2[C@H]3N)c2ccnn2c1-c1ccccc1Cl [Compound 22, (5S)-1'-[7-(2-chlorophenyl)-6-methyl-pyrazolo[1,5-a]pyrazin-4-yl]spiro[5,7-dihydrocyclopenta[b]pyridine-6,4'-piperidine]-5-amine]
12 | COc1cc2c(cn1)[C@@H](N)C1(CCN(c3nc(C)c(-c4ccccc4F)n4nccc34)CC1)C2 [Compound 122, (7S)-1''-[7-(2-fluorophenyl)-6-methyl-pyrazolo[1,5-a]pyrazin-4-yl] -3-methoxy-spiro [5,7-dihydrocyclopenta[c]pyridine-6,4'-piperidine]-7-amine]
6 | COc1cc2c(cn1)CC1(CCN(c3nc(C)c(-c4ccnc(C)c4Cl)n4nccc34)CC1)[C@@H]2N [Compound 137, (5S)-1'-[7-(3-chloro-2-methyl-4-pyridyl)-6-methyl-pyrazolo[1,5-a]pyrazin-4-yl]-3-methoxy-spiro[5,7-dihydrocyclopenta[c]pyridine-6,4'-piperidine]-5-amine]
13 | COc1ccc(F)c(-c2c(C)nc(N3CCC4(CC3)Cc3ncccc3[C@H]4N)c3ccnn23)c1 [Compound 31, (5S)-1'-[7-(2-fluoro-5-methoxy-phenyl)-6-methyl-pyrazolo[1,5-a]pyrazin-4-yl]spiro[5,7-dihydrocyclopenta[b]pyridine-6,4'-piperidine]-5-amine]
5 | Cc1nc(N2CCC3(CC2)Cc2ncccc2[C@H]3N)c2ccnn2c1-c1ccsc1 [Compound 194, (5S)-1'-[6-methyl-7-(3-thienyl)pyrazolo[1,5-a]pyrazin-4-yl]spiro[5,7-dihydrocyclopenta[b]pyridine-6,4'-piperidine]-5-amine]
3 | COc1c(F)ccc(-c2c(C)nc(N3CCC4(CC3)Cc3ncccc3[C@H]4N)c3ccnn23)c1F [Compound 5, (5S)-1'-[7-(2,4-difluoro-3-methoxy-phenyl)-6-methyl-pyrazolo [1 ,5-a]pyrazin-4-yl]spiro[5,7-dihydrocyclopenta[b]pyridine-6,4'-piperidine] -5-amine]
18 | Cc1nc(N2CCC3(CC2)Cc2ncccc2[C@H]3N)c2ccnn2c1-c1cncc(F)c1 [Compound 179, (5S)-1'-[7-(5-fluoro-3-pyridyl)-6-methyl-pyrazolo[1,5-a]pyrazin-4-yl]spiro[5,7-dihydrocyclopenta[b]pyridine-6,4'-piperidine]-5-amine]
12 | Cc1nc(N2CCC3(CC2)Cc2ncccc2[C@H]3N)c2ccnn2c1-c1ccc(C#N)cc1F [Compound 206, 3-fluoro-4-[6-methyl-4-[(5S)-5-aminospiro[5,7-dihydrocyclopenta[b]pyridine-6,4'-piperidine]-1'-yl]pyrazolo[1,5-a]pyrazin-7-yl]benzonitrile]
8 | COc1ccc2c(c1)CC1(CCN(c3nc(C)c(-c4ccnc(C)c4Cl)n4nccc34)CC1)[C@@H]2N [Compound 6, (1S)-1'-[7-(3-chloro-2-methyl-4-pyridyl)-6-methyl-pyrazolo[1,5-a]pyrazin-4-yl]-5-methoxy-spiro[indane-2,4'-piperidine]-1-amine]
3 | Cc1nc(N2CCC3(CC2)Cc2ncccc2[C@H]3N)c2ccnn2c1-c1ccc(F)c2cc[nH]c12 [Compound 208, (5S)-1'-[7-(4-fluoro-1H-indol-7-yl)-6-methyl-pyrazolo[1,5-a]pyrazin-4-yl]spiro[5,7-dihydrocyclopenta[b]pyridine-6,4'-piperidine]-5-amine]
15 | Cc1nccc(-c2c(C)nc(N3CCC4(CC3)Cc3ncc(F)cc3[C@H]4N)c3ccnn23)c1Cl [Compound 28, (5S)-1'-[7-(3-chloro-2-methyl-4-pyridyl)-6-methyl-pyrazolo[1,5-a]pyrazin-4-yl]-3-fluoro-spiro[5,7-dihydrocyclopenta[b]pyridine-6,4'-piperidine] -5-amine]
